Legend:
Format in all cases: cell-based
cAMP-GEFI = target: T1, cAMP-GEFI (Rattus norvegicus, UniProt Q9Z1C8); test: Ratio of GTP to GDP bound to Rap1A in 293T cells expressing cAMP-GEFI; parameters: expressed in transfected cells; host or cells: 293T cells
T1 sequence (Q9Z1C8 43-926 limits assumed): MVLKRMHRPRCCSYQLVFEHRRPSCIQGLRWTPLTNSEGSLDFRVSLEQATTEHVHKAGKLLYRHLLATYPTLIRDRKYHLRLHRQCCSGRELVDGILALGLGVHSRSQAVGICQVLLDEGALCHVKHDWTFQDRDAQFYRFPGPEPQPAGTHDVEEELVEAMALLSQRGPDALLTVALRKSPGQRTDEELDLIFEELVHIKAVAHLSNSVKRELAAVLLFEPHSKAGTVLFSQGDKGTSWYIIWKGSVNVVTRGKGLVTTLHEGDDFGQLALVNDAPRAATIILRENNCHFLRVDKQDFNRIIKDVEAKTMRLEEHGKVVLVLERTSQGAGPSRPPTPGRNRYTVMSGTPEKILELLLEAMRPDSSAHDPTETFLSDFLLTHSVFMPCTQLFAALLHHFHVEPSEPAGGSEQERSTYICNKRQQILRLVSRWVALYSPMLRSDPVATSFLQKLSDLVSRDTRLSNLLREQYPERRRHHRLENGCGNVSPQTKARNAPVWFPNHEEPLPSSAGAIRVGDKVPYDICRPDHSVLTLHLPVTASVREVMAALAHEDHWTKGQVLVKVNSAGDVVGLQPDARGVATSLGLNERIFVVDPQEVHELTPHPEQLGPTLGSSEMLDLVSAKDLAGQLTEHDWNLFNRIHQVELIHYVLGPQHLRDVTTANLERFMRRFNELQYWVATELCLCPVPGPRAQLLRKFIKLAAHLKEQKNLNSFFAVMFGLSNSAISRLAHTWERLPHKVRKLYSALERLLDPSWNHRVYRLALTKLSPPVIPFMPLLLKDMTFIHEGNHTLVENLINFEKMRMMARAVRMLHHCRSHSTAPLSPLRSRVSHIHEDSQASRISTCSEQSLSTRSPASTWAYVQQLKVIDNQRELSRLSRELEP
Experimental: (§1) To determine the effect of CalDAG-GEFI on the Erk/MAP kinase cascade, Elk1 activation was measured in 293T cells transfected with CalDAG-GEFI or constitutively active H-Ras (RasV12), or both. 293T cells were transfected by SuperFect (Qiagen) as described in Gotoh, supra, with expression vectors for GST-tagged Ras family proteins and with those for various GEFs. Cells were labeled 24 hours after transfection with ^32Pi for 2 hr. In some experiments, cells were stimulated with either 10 μM A23187 or 1 μM phorbol-12-myristate-13-acetate (TPA) for 3 min. GST-tagged Ras family proteins were collected from cell lysates with glutathione Sepharose. Guanine nucleotides bound to Ras family proteins were separated by thin layer chromatography (TLC). Activation of Elk1 was examined by the PathDetect Elk1 transreporting system (Stratagene). 293T cells were transfected with pFR-Luc and pFA-Elk1 with various expression vectors, and light output was detected and analyzed by the use of LAS1000 film.
(§2) Forskolin/IBMX treatment given alone had no effect.
Thus, cAMP-GEFI has a direct effect on Rap1A rather than secondary effects mediated by other Ras-superfamily GEFs.

Rap1A = test: GTP-bound Rap1A in 293T cells in the absence of cAMP-GEFs; conditions: treatment alone
From the text: as §2
cAMP-dependent activation of Rap1 has previously been ascribed to the phosphorylation of Rap1A by PKA, which raises its affinity to smgGDS, a GEF with broad substrate specificity. […] The activation of Rap1A induced by cAMP-GEFI and II is independent of the PKA pathway.

cAMP-GEFII = target: T2, cAMP-GEFII (Homo sapiens, UniProt Q8WZA2); test: Ratio of GTP to GDP bound to Rap1A in 293T cells expressing cAMP-GEFII
T2 construct: expressed in transfected cells; host or cells: 293T cells
Experimental: as §1, §2

T2 sequence (Q8WZA2 whole entry): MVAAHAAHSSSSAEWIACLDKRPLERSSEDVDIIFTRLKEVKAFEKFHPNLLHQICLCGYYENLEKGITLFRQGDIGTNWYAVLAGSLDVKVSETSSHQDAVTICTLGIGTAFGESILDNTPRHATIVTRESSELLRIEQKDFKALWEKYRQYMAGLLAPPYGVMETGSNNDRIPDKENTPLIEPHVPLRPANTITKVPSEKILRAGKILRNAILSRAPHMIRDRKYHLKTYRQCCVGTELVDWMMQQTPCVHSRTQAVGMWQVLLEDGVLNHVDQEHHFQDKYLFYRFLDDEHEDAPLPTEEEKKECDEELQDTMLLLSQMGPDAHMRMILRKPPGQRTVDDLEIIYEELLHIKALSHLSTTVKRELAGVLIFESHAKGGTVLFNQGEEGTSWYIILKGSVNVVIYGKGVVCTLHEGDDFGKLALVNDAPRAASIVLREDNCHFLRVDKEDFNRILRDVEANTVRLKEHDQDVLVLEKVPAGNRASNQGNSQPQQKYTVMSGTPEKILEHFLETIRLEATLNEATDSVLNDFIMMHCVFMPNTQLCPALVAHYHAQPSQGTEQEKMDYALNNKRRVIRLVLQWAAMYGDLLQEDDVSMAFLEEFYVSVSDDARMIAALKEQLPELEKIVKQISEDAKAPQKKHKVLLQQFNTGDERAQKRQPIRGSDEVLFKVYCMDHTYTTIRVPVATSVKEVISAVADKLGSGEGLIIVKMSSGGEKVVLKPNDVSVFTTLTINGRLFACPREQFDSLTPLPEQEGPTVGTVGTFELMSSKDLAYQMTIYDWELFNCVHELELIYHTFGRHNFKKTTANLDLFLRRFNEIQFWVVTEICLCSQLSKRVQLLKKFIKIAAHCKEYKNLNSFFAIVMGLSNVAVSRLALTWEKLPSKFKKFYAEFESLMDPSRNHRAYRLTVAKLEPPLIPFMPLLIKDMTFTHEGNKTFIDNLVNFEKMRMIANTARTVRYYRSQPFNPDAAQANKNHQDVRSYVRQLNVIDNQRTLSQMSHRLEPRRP

Rap1A activation by cAMP-GEFI in the presence of the PKA inhibitor (cAMP-GEFI; 293T cells)	Rap1A activation by cAMP-GEFII in the presence of the PKA inhibitor (cAMP-GEFII)	Compound	Activation of Rap1A (cAMP-GEFI; cAMP-GEFI transfectants)	Increase of GTP-bound Rap1A without cAMP-GEF (Rap1A)
–	–	Nc1ncnc2c1ncn2[C@@H]1O[C@@H]2COP(O)(=S)O[C@H]2[C@H]1O (stereo partly shown) [Sp-cAMPS]	activated Rap1A at levels similar to those induced by forskolin/IBMX	not detected
could still activate Rap1A	could still activate Rap1A	O=S(=O)(NCCNC/C=C/c1ccc(Br)cc1)c1cccc2cnccc12 [H-89]	–	–
